One data set addresses T1, cyclophilin A (Cyp A) (Homo sapiens, UniProt P62937).
T1 construct: purchased Sigma C3805
The data set is described as follows: Protease-free PPIase assay, cyclophilin A. It is filed as biochemical. Put shortly: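 Protease-free cis-trans isomerisation: 2 nM recombinant human cyclophilin A with 60 μM succinimide-peptide substrate in 35 mM HEPES pH 7.8 plus DTT, at 10.0 °C, max 0.5% DMSO. Absorbance at 330 nm was fitted to first-order kinetics, background subtracted, and catalytic rates versus inhibitor concentration gave Ki.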

Data set [1] in a line: Water solubility assay (pH 7.8 buffer). It is filed as physicochemical. The following applies: pH 7.8. The gist of the method:
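DMSO stocks were diluted into 35 mM HEPES pH 7.8 to final 0–100 μM with 1% DMSO, in triplicate. Plates were shaken 18 h at 25 °C, then precipitation was detected as increased absorbance at 650 nm. Values give the concentration (μM) at which the compound remains in solution.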

Drawing on US9382295B2, “Cyclic depsipeptide compounds and their uses” (Cypralis Limited, priority 2012, dated 2016), this text covers Ki and solubility for one molecule.

T1 sequence (P62937 whole entry): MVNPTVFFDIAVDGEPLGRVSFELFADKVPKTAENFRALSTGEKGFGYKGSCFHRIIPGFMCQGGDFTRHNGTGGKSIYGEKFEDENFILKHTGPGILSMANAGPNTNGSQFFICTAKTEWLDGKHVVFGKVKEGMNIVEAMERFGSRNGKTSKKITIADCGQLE

As to `CC(C)CC1NC(=O)[C@H](CC(C)C)N(C)C(=O)CN(C)C(=O)C([C@@H](C)O)NC(=O)C([C@H](O)[C@H](C)CCN2CCOCC2)N(C)C(=O)C(C(C)C)N(C)C(=O)C(CC(C)C)NC(=O)C(CC(C)C)N(C)C(=O)C(C(C)C)OC(=O)C(C)NC(=O)C(CC(C)C)N(C)C1=O` (stereo in doubt) [Example 2, cyclo-[(3R,4R,5S)-4-(hydroxy)-3-methyl-5-(methylamino)-1-N-morpholino-hexanoic acid-Thr-Sar-MeLeu-Leu-MeLeu-Ala-D-Hiv-MeLeu-Leu-MeVal]], the Ki on cyclophilin A (Cyp A) is 9.2 nM. The solubility at 18 h in data set [1] is greater than 100 µM.

By Ki is commonly meant a dissociation constant, usually derived from enzyme kinetics or from competition with a known ligand. Low values mean higher affinity, high ones lower affinity. Broadly, the solubility is how much of the substance goes into solution per volume. A higher solubility goes with much dissolved substance.
